Laboratory results reported in PubChem BioAssay AID602296 (Broad Institute, 2012).
Results filed as inconclusive are left out. Activity calls are given as the source filed them.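 Rule for the calls: active = fitted activation curve crossing 40% at a concentration no higher than the sample's top valid tested dose; inconclusive = flat fitted curve at 30% to 70% activation, or poor curve fit; inactive = signal decrease, flat curve within 30%, or the rest.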

System: NIH3T3-HGL HSF-1 response element luciferase, 48 h
Test: HSF-1 reporter activators over prolonged exposure, confirmation, cell-based, mouse, luciferase, cherry-pick, dose (AID 602296);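 note: test compounds applied by themselves with no MG132 co-treatment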

| Compound | AC40 |
| --- | --- |
| O=C(NC1CCSc2ccccc21)c1ccccc1Cl (centres undefined) | 6.46 µM |
| COCCCn1c(Cc2csc(Nc3ccc(F)cc3)n2)nnc1SCC(N)=O | > 26 µM (inactive) |
| CCCSc1nnc2n(-c3ccccc3OC)c(=O)c3c4c(sc3n12)CCC4 | > 26 µM (inactive) |
| CCCCN(CCCNC(=O)C1CCN(S(=O)(=O)CC)CC1)c1ccccc1 | 10.4 µM |
| COC(=O)C1CCN(C(=O)COC(=O)c2ccc(OC)c(S(=O)(=O)N3CCCc4ccccc43)c2)CC1 | 9.15 µM |
| CCCCCNC(=O)C1CCC(Cn2c(=S)[nH]c3ccccc3c2=O)CC1 (centres undefined) | > 26 µM (inactive) |
| COc1ccccc1/C=C1/SC(=S)N(C(C)C(=O)NC2C=CS(=O)(=O)C2)C1=O (centres undefined) | > 26 µM (inactive) |
| CC1CCCCN1C(=O)COc1ccccc1F (centres undefined) | 21.2 µM |
| O=C(Nc1cccn(Cc2c(Cl)cccc2Cl)c1=O)c1ccccc1Cl | > 26 µM (inactive) |
| CCN(/N=C/C=C/c1ccccc1)c1cc(=O)n(C)c(=O)[nH]1 | > 26 µM (inactive) |
| Cc1ccc(O)c(CNc2nccs2)c1 | 24.5 µM |
| COC(=O)CC1C(=O)NCCN1C(=O)c1ccc(S(=O)(=O)N2CCOCC2)cc1 (centres undefined) | > 26 µM (inactive) |
| CCOC(=O)c1cccc(NC(=O)Cn2c(CC(=O)NC)nc3ccccc32)c1 | > 26 µM (inactive) |
| O=C(Nc1ccc(Br)cn1)c1ccc([N+](=O)[O-])o1 | > 26 µM (inactive) |
| O=C(N/N=C/c1ccc(-c2cccc([N+](=O)[O-])c2)o1)c1ccccc1O | > 26 µM (inactive) |
| COCc1cc(=O)[nH]c(SCCS(=O)(=O)c2ccc(Cl)cc2Cl)n1 | > 12 µM (inactive) |
| Cc1nc2ccccc2nc(C)c1=NOCc1ccccc1Cl | 3.97 µM |
| Cc1cccc(NCc2nc3ccccc3n2C)c1 | 1.61 µM |
| CCN(CC)S(=O)(=O)c1ccc(C(=O)NN(C)C2=NS(=O)(=O)c3ccccc32)cc1 | > 26 µM (inactive) |
| COc1cc(NC(=O)Cc2cccs2)ccc1-n1cnnn1 | > 26 µM (inactive) |

| Compound | AC40 |
| --- | --- |
| Cn1ncc(Br)c1C(=O)N1CCOCC1 | > 26 µM (inactive) |
| COc1ccc(S(=O)(=O)N2CCC(C(=O)NCc3cccnc3)CC2)cc1C | > 26 µM (inactive) |
| Cc1ccc(N2C(=O)CCC2(C#N)c2ccccc2)cc1 (centres undefined) | > 26 µM (inactive) |
| O=C(c1ccc[nH]c1=S)N1CCN(S(=O)(=O)c2ccc(Br)cc2Cl)CC1 | > 26 µM (inactive) |
| O=C(NC1C(=O)NNC1c1ccccc1)c1ccccc1 (centres undefined) | 6.88 µM |
| O=C(CSc1nnc(-c2c[nH]c3ccccc23)n1-c1ccc(F)cc1)NCc1ccco1 | 13.5 µM |
| COC(=O)C1NN=C(C(=O)c2ccc(Cl)cc2)C1c1ccc(OC)cc1 (centres undefined) | > 26 µM (inactive) |
| O=C(O)CSc1nc2ccccc2nc1Cc1ccccc1F | 9.82 µM |
| CCOc1ccc(CN(C)C(=O)CNC(=O)c2ccc3ccccc3c2)cc1OC | > 26 µM (inactive) |
| COCOc1cc(O)c(C(=O)/C=C/c2ccccc2)c(OCOC)c1 | 7.9 µM |
| Cc1cnn(-c2cc(N/N=C/c3cccc(F)c3)ncn2)c1 | 9.32 µM |
| O=C1C2CC=CCC2C(=O)N1c1ccc(NCCc2ccccc2)c([N+](=O)[O-])c1 (centres undefined) | 3.31 µM |
| Cc1cc2oc3c(c(=O)c2cc1C)C(c1ccc(C(C)C)cc1)N(CCCN1CCOCC1)C3=O (centres undefined) | > 26 µM (inactive) |
| C=CCn1c(-c2cc(-c3ccccc3)sc2N)n[nH]c1=S | 12.3 µM |
| Cc1nonc1OCCNCCNc1ccc([N+](=O)[O-])cc1Cl | > 26 µM (inactive) |
| C[C@]12CC[C@@H]3c4cc(O)c(O)cc4CC[C@H]3[C@@H]1CC[C@@H]2O | 25.2 µM |
| CCCCc1c(O)nc(SCC(=O)N2CCOCC2)n(-c2ccc(OC)cc2)c1=O | > 26 µM (inactive) |
| Cc1nc(S(=O)(=O)c2ccc(Cl)cc2)c(NCc2ccccc2)o1 | > 26 µM (inactive) |
| N#C/C(C(=O)NCc1ccccc1)=C1/N=C(NC(=O)c2ccco2)c2ccccc21 | > 26 µM (inactive) |
